What was measured:
[1] = system: protein of mammary cancer 4T1 cells; experiment: Whole-cell antibody detection (serum IgG ELISA); type: in vivo, mice; conditions: blood collected sixth day after each of 4 immunotherapies, FIG. 12
Experimental: The protein of mammary cancer 4T1 cells is extracted and the concentration of which is also measured in accordance with the operation manual of the BCA protein quantitative kits. The extracted protein is used as the envelope antigen. The venous blood of mice is collected sixth days after each immunotherapy, and its supernatant is collected for 4 times. The serum antibody is measured in accordance with the operation manual of the ELISA kit.

B16f10 melanoma cells = experiment: CTL experiment (LDH method), spleen lymphocytes of treated mice against B16f10; type: in vivo; conditions: effector:target 50:1, 4 hours, after two weeks of administration; vs control, T7 and EA groups (P<0.05), FIG. 6
Experimental: The activity of cytotoxic T lymphocyte (CTL) is determined by the method of Lactic dehydrogenase (LDH) with CytoTox96Promega kits. The mice in the experimental group are broken the neck to death. The spleen lymphocytes are taken as the effector cells while the B16f10 melanoma cells are used as the target cells. The effector cells and the target cells are mixed up with a ratio of 50:1 and cultured for 4 hours. The specific operation steps can be implemented according to the operation manual, while the kill rate can calculated as follows: the killing rate (%)=(OD value of the experimental group−pontaneous OD value of the effector cells−pontaneous OD value of the target cells)/(Maximum OD value of the target cells−pontaneous OD value of the target cells)×100%. The mice in the experimental group are broken the neck to death after two weeks of administration. The spleen lymphocytes are taken as the effector cells while the B16f10 melanoma cells are used as the target cells. The effector cells and the target cells are spread onto 96-well U-shape plate according to a ratio of 50:1 and cultured together for 4 hours.

spleen lymphocytes [2] = experiment: Lymphocyte proliferation experiment (CCK8); type: cell-based, mice; conditions: 24 hours; for proliferation of the lymphocytes: CCK8, FIG. 4
Experimental: The activation and proliferation abilities of T7-EA on the lymphocytes are detected. The mice are broken the neck to death and soaked in 75% ethanol, and then placed on the super-clean bench for taking the spleen out with a sterile operation. The spleen is grinded in the 35 mm culture dish containing 4-5 ml murine lymphocyte separating medium. Then obtained cell suspension is transferred to the 15 ml centrifuge tube in which 500 μl RPMI-1640 is gently added along the tube wall for enclosure. After that the centrifuge tube is centrifuged for 30 minutes at 800 G. Then the centrifuged layer containing the lymphocytes is further centrifuged at 250 G for 10 minutes in a centrifuge tube containing 10 ml culture medium. The supernatant is discarded and the cell pellet is dissipated by the culture medium and counted. The spleen leukomonocytes are deposited on the 96-well plate with a cell density of 2×10^5/each well. T7-EA with corresponding concentrations (0, 0.001, 0.01, 0.1, 1, 2, 4, 8, 16, 20, 24 μmol/L) is added onto the 96-well plate and incubated for 24 hours in the cell culture box of 5% CO2 and saturated humidity at 37° C. The effect of the T7-EA on the proliferation of the lymphocytes is detected by CCK8 after the 24 hours incubation according to the operation manual of the CCK8 kits, and the results are shown in FIG. 4. […] When the T7-EA has a concentration of 4 μmol/L, the relative proliferation rate is about 50%.

spleen lymphocytes [3] = experiment: ELISA detection of cytokines IFN-γ and IL-12 generated by spleen lymphocytes after stimulation of T7-EA; type: cell-based, mice; conditions: 24 hours
Experimental: (§1) The mice are broken the neck to death and soaked in 75% ethanol, and then placed on the super-clean bench for taking the spleen out with a sterile operation. The spleen is grinded in the 35 mm culture dish containing 4-5 ml Mouse1×lymphocyte separating medium. Then separating medium suspended with spleen cells is transferred to the 15 ml centrifuge tube and enclosed with 500 μl RPMI-1640, After that the centrifuge tube is centrifuged at room temperature for 30 minutes at 800 G. Then the middle buffy coat is placed into a centrifuge tube containing 10 ml culture medium for being overthrown and washed. After that, the centrifuge tube is further centrifuged at 250 G for 10 minutes at room temperature. The supernatant is discarded and the cell pellet is dissipated by the culture medium and counted. The spleen leukomonocytes are deposited on the 24-well plate with a final cell density of 1×10^6/ml. T7-EA with corresponding concentrations (0, 0.01, 0.1, 0.5, 1, 2, 4, 8, 16, 20, 24 μmol/L) is added and incubated for 24 hours in the cell culture box. The supernatant is collected on the second day and tested according to the operation manual of the ELISA kit. […] When the T7-EA has a concentration ≤4 μmol/L, better effects can be obtained. Accordingly, 4 μmol/L is the effective concentration of the T7-EA.

spleen lymphocytes [4] = experiment: ELISA detection of cytokines IFN-γ and IL-12 generated by spleen lymphocytes after stimulation of T7-EA-ROR1; type: cell-based, murine; conditions: final T7-EA concentration 4 μmol/L, T7-EA:ROR1 molar ratio 1:1, FIGS. 10A-10B
Experimental: as §1, with “T7-EA. […]” for “T7-EA.”

spleen lymphocytes [5] = experiment: ELISA detection of IFN-γ and IL-12 after stimulation of spleen lymphocytes in vitro by T7-EA; type: cell-based, mice; conditions: 24 hours, FIGS. 3A-3B
Experimental: The mice are broken the neck to death and soaked in 75% ethanol for 5 minutes, and then placed on the super-clean bench for taking the spleen out with a sterile operation. The spleen is grinded in the 35 mm culture dish containing 4-5 ml murine lymphocyte separating medium. Then obtained cell suspension is transferred to the 15 ml centrifuge tube in which 500 μl RPMI-1640 is gently added along the tube wall for enclosure. After that the centrifuge tube is centrifuged for 30 minutes at 800 G. Then the centrifuged layer containing the lymphocytes is further centrifuged at 250 G for 10 minutes in a centrifuge tube containing 10 ml culture medium. The supernatant is discarded and the cell pellet is dissipated by the culture medium and counted. The spleen leukomonocytes are deposited on the 24-well plate with a cell density of 1×10^6/ml. T7-EA with corresponding concentrations (0, 0.001, 0.01, 0.1, 1, 2, 4, 8, 16, 20, 24 μmol/L) is added into each well and incubated for 24 hours in the cell culture box of 5% CO2 and saturated humidity at 37° C. The supernatant is collected on the second day and tested according to the operation manual of the ELISA kit. The supernatants are collected after stimulating the spleen lymphocytes with T7-EA of different concentrations for 24 hours, and the ELISA test results are shown in FIGS. 3A-3B.

[6] = system: murine melanoma cell line B16f10; experiment: Anti tumor experiment of T7-EA in vivo (melanoma-bearing mice); parameters: species or system BALB/c mice; conditions: T7-EA 10 mg/Kg once every three days for 2 weeks; vs control group, T7 group and EA group (P<0.01), FIG. 5
Source text: The used materials comprise animal and cell strain BALB/c mice, female, 5-6 weeks old, provided by the Guangdong Medical Laboratory Animal Center; and murine melanoma cell line B16f10 purchased from Shanghai ATCC Cell Bank.
24 4-5 weeks old female BALB/c mice are loaded with 5×10^5 tumor cells/each one after 1 weeks of quarantine at SPF level in an animal room. The mice bearing tumors are randomly divided into 75% ethanol control group, T7 group, EA group and T7-EA group, when the diameter of the tumor reaches 5 mm. The corresponding drugs are given to each group with a dosage of T7-EA 10 mg/Kg, T7 5 mg/kg, EA 12.5 mg/kg once every three days for 2 weeks. During the treatment, the tumor growth is observed by measuring the tumor size every three days. The tumor surface area is calculated according to the following formula: S=tab (wherein a represents the long diameter, while b represents the short diameter). The 24 mice are loaded with 5×10^5 tumor cells/each one after 7 days of quarantine at SPF level in an animal room. The mice bearing tumors are randomly divided into 75% ethanol control group, T7 group, EA group and T7-EA group, when the diameter of the tumor reaches 5 mm. The corresponding drugs are given to each group once every three days for 2 weeks, and the tumor size is measured every three days.

[7] = system: dendritic cells derived from bone marrow cells; conditions: in vitro; cited from earlier work
lymphocyte = conditions: cited from earlier work
[8] = higher concentration (>4 μmol/L)
[9] = lower concentration (≤4 μmol/L)

| SMILES | level of IgG antibody in the mice sera [1] | immune killing effect (CTL killing rate) (B16f10 melanoma cells) | relative proliferation rate (spleen lymphocytes [2]; concentration of 4 μmol/L) | lethal effect on the lymphocytes (spleen lymphocytes [2]; higher concentration (>4 μmol/L), CCK8) | proliferation of the lymphocytes (spleen lymphocytes [2]; [8]) | proliferation of the lymphocytes (spleen lymphocytes [2]; [9]) | generation of cytokines IFN-γ and IL-12 by lymphocytes (spleen lymphocytes [3]; 0-24 μmol/L, FIGS. 8A-8B) | effective concentration of the T7-EA (spleen lymphocytes [3]; IFN-γ and IL-12 induction) [µmol/L] | generation of cytokines IFN-γ and IL-12 by spleen lymphocytes (spleen lymphocytes [4]) | ability for activating lymphocytes (generation of IFN-γ and IL-12) (spleen lymphocytes [5]; [8]) | ability for activating lymphocytes (generation of IFN-γ and IL-12) (spleen lymphocytes [5]; [9]) | growth of the tumor (tumor surface area) [6] | production of inflammatory mediators TNF-a and IL-12 [7] | production of inflammatory mediators IFN-γ and IL-12 (lymphocyte) |
| --- | --- | --- | --- | --- | --- | --- | --- | --- | --- | --- | --- | --- | --- | --- |
| C=C(CC)C(=O)c1ccc(OCC(=O)NCc2ccc(Cn3c(O)nc4c(N)nc(OCCOC)nc43)cc2)c(Cl)c1Cl [T7-EA] | increases gradually with the increase of immunization times | stronger immune killing effect on melanoma | about 50% | no lethal effect on the lymphocytes | no effect on the proliferation of the lymphocytes | can promote the proliferation of the lymphocytes | can activate the lymphocytes and induce the lymphocytes to generate cytokines IFN-γ and IL-12 | 4 | can induce the spleen lymphocytes to generate cytokines IFN-γ and IL-12 | decreased ability for activating lymphocytes | stronger ability for activating lymphocytes | significantly inhibited the growth of the tumor | – | – |
| COCCOc1nc(N)c2nc(O)n(Cc3ccc(CN)cc3)c2n1 [T7] | – | – | – | – | – | – | – | – | – | – | – | – | inflammatory mediators, such as TNF-a and IL-12 can be produced rapidly | inflammatory mediators, such as IFN-γ and IL-12 can also be produced rapidly |

Source: US10711005B2, “Compound I and compound II as well as preparation methods therefor and application thereof” (SHENZHEN UNIVERSITY, priority 2015, dated 2020)
